From the supplement of paper PMC10307832

Columns and labels:
Assay in all cases: relative viability (nuclei count vs DMSO), 5 days (fraction); higher = more cells survive
[1] = compound: COC1=CC=C(C=C1)CN2C=CC3=C2C=C(C=C3)C(=O)NO + Cc1nc(Nc2ncc(C(=O)Nc3c(C)cccc3Cl)s2)cc(N2CCN(CCO)CC2)n1 [Dasatinib] (partner 0.075 µM)
Method in brief: (§1)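 Lung cancer cell lines were seeded in 1536-well plates and dosed by pin tool the next day, with either a single drug or a fixed anchor-drug dose combined with five library-drug doses (not always all listed) spaced in √10 steps. Five days later, one step fixed the cells and stained their nuclei (final 0.05% Triton X-100, 1% formaldehyde, 1 ug/ml Hoechst), and nuclei were counted on 4× images. Relative viability is the nuclei count in treated wells divided by the count in vehicle wells, and each value is the median of duplicate plates.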

[2] = compound: C[C@]1(c2nc3c(C(N)=O)cccc3[nH]2)CCCN1 [Veliparib] + CC(=O)Nc1cccc(-n2c(=O)n(C3CC3)c(=O)c3c(Nc4ccc(I)cc4F)n(C)c(=O)c(C)c32)c1 [Trametinib] (partner 0.02 µM)
Method in brief: as §1

[3] = compound: C[C@]1(c2nc3c(C(N)=O)cccc3[nH]2)CCCN1 [Veliparib] + COc1cc2c(Oc3ccc(NC(=O)C4(C(=O)Nc5ccc(F)cc5)CC4)cc3F)ccnc2cc1OCCCN1CCOCC1 [Foretinib] (partner 0.25 µM)
Method in brief: as §1

[4] = compound: C[C@]1(c2nc3c(C(N)=O)cccc3[nH]2)CCCN1 [Veliparib] + CS(=O)(=O)N1CCN(Cc2cc3nc(-c4cccc5[nH]ncc45)nc(N4CCOCC4)c3s2)CC1 [Pictilisib] (partner 1 µM)
Method in brief: as §1

Row | Cell Line | relative viability ([1]; first compound 0.08 µM) | relative viability ([1]; first compound 0.253 µM) | relative viability ([1]; first compound 0.8 µM) | relative viability ([1]; first compound 2.53 µM) | relative viability ([1]; first compound 8 µM) | relative viability ([2]; first compound 0.02 µM) | relative viability ([2]; first compound 0.06325 µM) | relative viability ([2]; first compound 0.2 µM) | relative viability ([2]; first compound 0.6325 µM) | relative viability ([2]; first compound 2 µM) | relative viability ([3]; first compound 0.02 µM) | relative viability ([3]; first compound 0.06325 µM) | relative viability ([3]; first compound 0.2 µM) | relative viability ([3]; first compound 0.6325 µM) | relative viability ([3]; first compound 2 µM) | relative viability ([4]; first compound 0.06325 µM) | relative viability ([4]; first compound 0.2 µM) | relative viability ([4]; first compound 0.6325 µM) | relative viability ([4]; first compound 2 µM) | relative viability ([4]; first compound 0.02 µM)
1 | NCI-H1395 | 0.394 | 0.381 | 0.431 | 0.446 | 0.35 | 0.995 | 0.96 | 0.924 | 0.899 | 0.857 | 0.956 | 0.898 | 0.957 | 0.795 | 0.806 | 0.516 | 0.557 | 0.675 | 0.524 | –
2 | NCI-H1792 | 0.705 | 0.841 | 0.749 | 0.726 | 0.715 | 0.499 | 0.411 | 0.41 | 0.438 | 0.401 | – | – | – | – | – | 0.212 | 0.301 | 0.263 | 0.332 | 0.322
3 | EKVX | 0.552 | 0.576 | 0.592 | 0.709 | 0.568 | – | 0.317 | 0.329 | 0.245 | 0.331 | 0.395 | 0.386 | 0.728 | 0.834 | 0.533 | 0.464 | 0.465 | 0.361 | 0.397 | 0.427
4 | CAL-12T | 0.426 | 0.613 | 0.478 | 0.414 | 0.408 | 0.42 | 0.378 | 0.328 | 0.256 | 0.374 | 1.2 | 1.04 | 1.15 | 1.09 | 1.29 | 0.395 | 0.522 | 0.386 | 0.351 | 0.439
5 | SW 900 | 0.541 | 0.556 | 0.628 | 0.629 | 0.334 | – | 0.75 | 0.938 | 0.621 | 0.828 | – | – | 0.905 | 0.781 | 0.945 | – | – | – | – | –
6 | NCI-H1734 | – | 0.492 | 0.547 | 0.536 | 0.382 | – | 0.613 | 0.792 | 0.631 | 0.72 | 0.797 | 0.85 | 0.886 | 0.832 | 0.836 | 0.436 | 0.492 | 0.437 | 0.435 | 0.461
7 | NCI-H522 | – | 0.904 | 1.12 | 0.781 | 0.765 | 0.716 | 0.608 | 0.805 | 0.771 | 1.01 | – | – | – | – | – | – | – | – | – | –
8 | A549 | – | – | – | – | – | – | – | – | – | – | 1.07 | 0.878 | 0.962 | 0.807 | 0.963 | 0.504 | 0.476 | 0.455 | 0.521 | 0.526
9 | BEN | 0.305 | 0.264 | 0.297 | 0.347 | 0.317 | 1.11 | 1.11 | 1.06 | 1.01 | 1.08 | 0.413 | 0.482 | 0.724 | 0.656 | 0.569 | 0.572 | 0.594 | 0.577 | 0.628 | 0.517
10 | NCI-H2126 | 0.591 | 0.673 | 0.655 | 0.61 | 0.547 | 0.571 | 0.512 | 0.574 | 0.526 | 0.531 | 1.19 | 1.2 | 1.26 | 1.31 | 1.1 | 0.452 | 0.507 | 0.458 | 0.537 | 0.531
11 | NCI-H1563 | 0.435 | 0.485 | 0.436 | 0.433 | 0.399 | – | – | – | – | – | 0.845 | 0.917 | 1.03 | 0.918 | 1.05 | 0.635 | 0.625 | 0.675 | 0.595 | 0.642
12 | NCI-H2023 | 0.553 | 0.596 | 0.592 | 0.577 | 0.439 | – | 0.636 | 0.563 | 0.563 | 0.477 | 0.78 | 0.691 | 0.852 | 0.885 | 0.788 | 0.238 | 0.251 | 0.209 | 0.224 | 0.196
13 | NCI-H1437 | 0.332 | 0.339 | 0.469 | 0.466 | 0.395 | 0.502 | 0.527 | 0.514 | 0.502 | 0.497 | 1.12 | 1.17 | 1.2 | 1.24 | 1.23 | 0.512 | 0.552 | 0.378 | 0.362 | 0.419
14 | NCI-H322M | – | 0.255 | 0.255 | 0.262 | 0.226 | – | 0.52 | 0.465 | 0.5 | 0.494 | – | 0.948 | 0.871 | 1 | 0.937 | 0.459 | 0.573 | 0.525 | 0.321 | 0.496
15 | EBC-1 | – | – | – | – | – | – | – | – | – | – | 0.0919 | 0.11 | 0.12 | 0.12 | 0.108 | 0.38 | 0.477 | 0.318 | 0.42 | 0.439
16 | IA-LM | – | – | – | – | – | – | – | – | – | – | 1.3 | 1.21 | 1.2 | 1.16 | 1.12 | 0.364 | 0.374 | 0.306 | 0.367 | 0.444
17 | NCI-H1648 | – | – | – | – | – | 0.631 | – | – | 0.557 | 0.516 | – | – | – | – | – | – | – | – | – | –
18 | HCC-44 | – | – | – | – | – | 1.07 | 0.938 | 1.14 | 1.04 | 1.06 | – | – | – | – | – | 0.566 | 0.577 | 0.544 | 0.644 | 0.63
19 | NCI-H1703 | – | – | – | – | – | – | – | – | – | – | – | – | 0.42 | 0.321 | 0.355 | 0.267 | 0.23 | 0.254 | 0.216 | 0.267
20 | NCI-H2342 | 0.297 | 0.321 | 0.305 | 0.304 | 0.313 | 0.76 | 0.81 | 0.701 | 0.742 | 0.736 | 1.16 | 1.05 | 1.06 | 1.01 | 0.903 | – | – | – | – | –
21 | NCI-H1299 | – | – | – | – | – | – | – | – | – | – | 1.16 | 1.04 | 1.05 | 1.04 | 1.08 | 0.703 | 0.779 | 0.751 | 0.765 | 0.985
22 | Calu-6 | – | – | – | – | – | – | – | – | – | – | 0.967 | 0.82 | 0.852 | 0.84 | 0.969 | 0.887 | 0.892 | 0.816 | 0.85 | 1.02
23 | ABC-1 | – | 0.566 | 0.589 | 0.676 | 0.488 | – | – | – | – | – | – | 0.858 | 1.12 | 0.961 | 1.15 | 0.702 | 0.609 | 0.735 | 0.851 | –
